Data as given in patent publication US8187320B2, “Medical implants containing FK506 (tacrolimus)” (Abbott Laboratories Vascular Enterprises Limited, priority 2001, dated 2012).
Where “and” joins values, the source holds several entries; their conditions need not be identical. Equal values may be shown once. Marks after values point to notes of the source that are not given here. Values belong to the compound of their own block, whether it stands above or below them.

Assays:
[1] = test system: smooth muscle cells (SMC); assay: Inhibition of proliferation of smooth muscle cell (SMC) cultures; type: cell-based
[2] = test system: neointima formation and foci of inflammation; assay: Animal study: FK506-loaded ceramic-coated stents implanted into the carotid artery of rabbits; type: in vivo, New Zealand rabbits; settings: ceramic-coated stents loaded with 60 μg of FK506; rabbit carotid artery; after 28 days
Protocol: Stainless steel coronary stents (JOSTENT Flex, 16 mm) were coated with an aluminum oxide ceramic layer. This coating served as carrier of FK506 (as described in Example 5). In this case, the stents were loaded with a total of 60 μg of FK506. In an animal study in rabbits (n=7), these FK506 coated stents and normal stents without coating were implanted into the carotid artery of New Zealand rabbits. The release of FK506 and the effect of FK506 on the growth of the intima and the formation of macrophages and lymphocytes was investigated.
The release of FK506 were determined by HPLC determination of the amount of FK506 in the blood of the rabbits after 1 hr, 8 hr, 24 hr and 48 hr. FIG. 6 is a graph showing the release of FK506 over time. The rabbits were sacrificed after 28 days, and the implanted stents were examined. The area of newly grown intima (neointima) within the stent was quantified under the optical microscope, and is reported in FIG. 7. There is a reduction of 53% in the formation of neointima for stents loaded with 60 μg of FK506 compared with bare stents. […] The use of stents with a ceramic coating onto which FK506 is applied thus leads to a distinct reduction in neointima and in foci of inflammation after the implantation.

[3] = Loading of selected active agents onto stent grafts / polyurethane-coated stents; type: physicochemical; settings: type A: stent grafts with PTFE polymer layer immersed in solution of dissolved solids
Source text: Loading of Selected Active Agents onto Stent Grafts All values are stated in μg.

[4] = Active agent release from stent grafts and polymer-coated stents in PBS buffer at 37° C.; type: physicochemical; settings: type A PTFE stent graft, PBS 37° C.
Protocol: To analyze the active agent release, a stent was incubated at 37° C. in 10 ml of PBS buffer (stabilized with Na azide) at 37° C. After defined periods of time had elapsed, 2×1 ml of the solution were removed and analyzed. These 2 ml were replaced by fresh PBS buffer (stabilized with Na azide).
The tables reflect the total released content of active agent in the solution., ie., the amounts of active agent in the buffer volume removed for the analysis are accumulated with amounts detected in subsequent examples.

neointima formation [5] = settings: animal experiments; cited from earlier work
neointima formation [6] = settings: pigs; Heldman 2001; cited from earlier work
restenosis = settings: in vivo; cited from earlier work

Compound: C=CC[C@@H]1/C=C(\C)C[C@H](C)C[C@H](OC)[C@H]2O[C@@](O)(C(=O)C(=O)N3CCCC[C@H]3C(=O)O[C@H](/C(C)=C/[C@@H]3CC[C@@H](O)[C@H](OC)C3)[C@H](C)[C@@H](O)CC1=O)[C@H](C)C[C@@H]2OC (relative stereo) [FK 506, [3S-[3R* [E(1S*, 3S*, 4S*)], 4S*, 5R*,-8S*, 9E, 12R*, 14R*, 15S*, 16R*, 18S*, 19S*, 26aR*]]-5,6,8,11,12, 13, 14, 15, 16, 17, 18, 19, 24, 25, 25, 26, 26a-hexadecahydro-5,19-dihydroxy-3-[2-(4-hydroxy-3-methoxycyclohexyl)-1-methylethenyl]-14,16-dimethoxy-4,10,12,18-tetramethyl-8-(2-propenyl)-15,19-epoxy-3H-pyrido[2,1-c] [1,4]oxaazacyclotricosine-1,7-20,21(4H,23H)-tetrone]
- concentrations with inhibitory effect on SMC proliferation [1]: 300 to 500 nM
- reduction in the formation of neointima compared with bare stents [2]: 53%

Compound: N.N.[Cl][Pt][Cl] [Cisplatin]
- amount of active agent loaded, Average [3]: 14 µg
- amount of active agent loaded, single stent, measured by AAS ([3]; measured by AAS): 15* μg and 14* μg
- total released content after 24 hr, single determinations ([4]; Cisplatin): 12.4 µg and 12.2 µg and 16.1 µg and 15.9 µg and 10.9 µg and 11.1 µg

Compound: O=C1c2c(O)ccc(O)c2C(=O)c2c(NCCNCCO)ccc(NCCNCCO)c21 [Mitoxantrone]
- amount of active agent loaded, Average [3]: 124 µg
- amount of active agent loaded, single stent [3]: 116 µg and 142 µg and 113 µg

- amount of active agent loaded, Average [3]: 144 µg
- amount of active agent loaded, single stent [3]: 128 µg and 155 µg and 148 µg
- total released content after 192 hr, Average ([4]; Paclitaxel, after 192 hr): 2.23 µg
- total released content after 192 hr, single determinations ([4]; Paclitaxel, after 192 hr): 2.22 µg and 2.24 µg
Compound: CC(=O)O[C@H]1C(=O)[C@@]2(C)[C@H]([C@H](OC(=O)c3ccccc3)[C@]3(O)C[C@H](OC(=O)[C@H](O)[C@@H](NC(=O)c4ccccc4)c4ccccc4)C(C)=C1C3(C)C)[C@]1(OC(C)=O)CO[C@@H]1C[C@@H]2O [Paclitaxel]
- total released content after 8 hr, single determinations ([4]; Paclitaxel, after 8 hr): 1.16 and μg and 1.21 μg and 0.89 and 0.94 μg and 1.42 and 1.25 μg
- total released content after 24 hr, single determinations ([4]; Paclitaxel): 2.44 and μg and 2.40 μg and 2.26 and 2.27 μg and 1.65 and 1.42 μg
- total released content after 96 hr, single determinations ([4]; Paclitaxel, after 96 hr): 2.79 and μg and 2.78 μg and 2.82 and 2.82 μg and 1.42 and 1.93 μg
- neointima formation (neointima formation [5]): inhibit neointima formation
- duration of beneficial effect of coated stents (neointima formation [6]): beneficial effect has been observed to cease after 6 months

- total released content after 96 hr, Average ([4]; Vinblastine, after 96 hr): 136 µg
- total released content after 96 hr, single determinations ([4]; Vinblastine, after 96 hr): 132 and μg and 140 μg
Compound: CC[C@]1(O)C[C@@H]2CN(CCc3c([nH]c4ccccc34)[C@@](C(=O)OC)(c3cc4c(cc3OC)N(C)[C@H]3[C@@](O)(C(=O)OC)[C@H](OC(C)=O)[C@]5(CC)C=CCN6CC[C@]43[C@@H]65)C2)C1 [Vinblastine]

Compound: CO[C@H]1C[C@@H]2CC[C@@H](C)[C@@](O)(O2)C(=O)C(=O)N2CCCC[C@H]2C(=O)O[C@H]([C@H](C)C[C@@H]2CC[C@@H](O)[C@H](OC)C2)CC(=O)[C@H](C)/C=C(\C)[C@@H](O)[C@@H](OC)C(=O)[C@H](C)C[C@H](C)/C=C/C=C/C=C/1C [rapamycin]
- healing of vessel wall injury caused by balloon angioplasty and stent implantation (restenosis): delays healing of vessel wall injury
